The target of one assay is CRBN/DDB1 (Homo sapiens (Human), UniProt Q96SW2). The experiment in a line: IC50 measurements for binding to CRBN/DDB1 (HTRF). The note with it: His tagged CRBN+DDB, Cy5-labeled Thalidomide probe, one hour. Put shortly:
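HTRF competition binding with 2 nM His-tagged CRBN-DDB1 complex, 60 nM Cy5-thalidomide probe and 0.4 nM anti-His Tb cryptate in 50 mM HEPES pH 7.5, 1 mM TCEP, 0.01% Brij-35, 50 mM NaCl, 0.1% BSA. Read after 1 h at room temperature; IC50 from four-parameter dose-response fit.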

Another assay deals with IKZF2 (Homo sapiens (Human), UniProt Q96SW2+Q9UKS7). The experiment in a line: In vitro IKZF2 HiBit Assay (HEK293T Flp-in-HiBiT cells). Conditions: HEK293T Flp-in-HiBiT cells, 6 hrs incubation; for DC50: read-out: IKZF2 HiBit DC50; for Dmax: HEK-293T, read-out: IKZF2 HiBit Dmax (%). It counts as cell-based. Put shortly:
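HEK293T Flp-in cells carrying an endogenous N-terminal HiBiT tag on IKZF2 were exposed to compound for 6 h at 0.1% DMSO. The dilution series was 11 doses at 3-fold, diluted from 1 mM. Nano-Glo HiBiT lytic luminescence, normalized to DMSO, gave DC50 for 50% degradation and Dmax across the concentration range, both reported in letter bins.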

In another assay the target is IKZF1 (Homo sapiens (Human), UniProt Q13422+Q96SW2). In words: In vitro IKZF1 HiBit Assay (HEK293T Flp-in-HiBiT-IKZF1 stable cell line). The note with it: HEK293T Flp-in-HiBiT-IKZF1 stable cell line, 6 hrs incubation; for DC50: read-out: IKZF1 HiBit DC50; for Dmax: HEK-293T, read-out: IKZF1 HiBit Dmax (%). In kind it is cell-based. Put shortly:
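HEK293T Flp-in cells carrying N-terminal HiBiT-tagged IKZF1 were exposed to compound (0.1% DMSO) for 6 h at 3000 cells/well. HiBiT luminescence was read after lytic LgBiT detection. DC50 and Dmax were taken from DMSO-normalized dose-response curves.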

Each structure is given as a SMILES string.

Sequence of CRBN/DDB1 (Q96SW2 whole entry, species assumed): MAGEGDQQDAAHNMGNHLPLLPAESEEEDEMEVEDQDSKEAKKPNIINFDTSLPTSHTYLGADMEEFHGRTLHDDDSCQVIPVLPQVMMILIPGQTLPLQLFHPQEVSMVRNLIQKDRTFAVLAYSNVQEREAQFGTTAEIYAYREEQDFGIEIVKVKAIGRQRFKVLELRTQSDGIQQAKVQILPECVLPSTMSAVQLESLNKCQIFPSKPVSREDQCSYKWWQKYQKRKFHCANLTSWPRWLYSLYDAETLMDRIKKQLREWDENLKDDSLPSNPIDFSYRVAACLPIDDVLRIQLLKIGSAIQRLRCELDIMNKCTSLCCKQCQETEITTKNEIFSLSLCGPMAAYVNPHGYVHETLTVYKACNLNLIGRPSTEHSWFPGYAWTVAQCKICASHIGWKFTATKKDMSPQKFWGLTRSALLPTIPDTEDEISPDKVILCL
Sequence of CRBN/DDB1 (Q16531 whole entry partner, species assumed): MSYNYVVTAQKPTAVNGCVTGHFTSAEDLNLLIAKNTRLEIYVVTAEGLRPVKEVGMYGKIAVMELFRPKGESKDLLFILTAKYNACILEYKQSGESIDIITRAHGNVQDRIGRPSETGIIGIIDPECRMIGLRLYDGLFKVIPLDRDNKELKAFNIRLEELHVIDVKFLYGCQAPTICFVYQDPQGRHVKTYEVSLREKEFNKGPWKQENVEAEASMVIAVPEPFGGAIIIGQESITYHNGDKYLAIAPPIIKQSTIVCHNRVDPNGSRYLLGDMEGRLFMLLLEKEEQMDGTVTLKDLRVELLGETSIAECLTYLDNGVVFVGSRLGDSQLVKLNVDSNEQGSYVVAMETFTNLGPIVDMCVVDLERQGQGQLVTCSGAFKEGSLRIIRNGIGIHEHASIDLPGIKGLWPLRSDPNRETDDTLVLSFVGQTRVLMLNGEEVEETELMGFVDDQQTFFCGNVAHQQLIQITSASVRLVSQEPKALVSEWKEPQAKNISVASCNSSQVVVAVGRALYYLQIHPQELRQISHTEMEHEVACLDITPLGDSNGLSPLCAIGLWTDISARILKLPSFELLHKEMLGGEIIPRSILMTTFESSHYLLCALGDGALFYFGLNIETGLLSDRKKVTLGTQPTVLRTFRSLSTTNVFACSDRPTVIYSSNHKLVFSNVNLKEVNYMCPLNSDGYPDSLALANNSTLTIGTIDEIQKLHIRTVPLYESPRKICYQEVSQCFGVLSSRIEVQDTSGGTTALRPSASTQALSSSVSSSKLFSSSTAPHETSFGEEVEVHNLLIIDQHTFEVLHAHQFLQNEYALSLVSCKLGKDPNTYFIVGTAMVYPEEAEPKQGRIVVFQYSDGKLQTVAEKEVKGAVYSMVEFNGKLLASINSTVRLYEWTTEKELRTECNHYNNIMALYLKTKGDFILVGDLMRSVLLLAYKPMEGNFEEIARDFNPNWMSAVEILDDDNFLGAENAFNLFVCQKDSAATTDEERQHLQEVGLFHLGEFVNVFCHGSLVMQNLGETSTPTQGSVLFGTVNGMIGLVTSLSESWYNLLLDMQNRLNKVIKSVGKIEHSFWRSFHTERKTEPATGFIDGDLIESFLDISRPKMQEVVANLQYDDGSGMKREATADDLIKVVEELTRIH
Sequence of IKZF2 (Q9UKS7 whole entry): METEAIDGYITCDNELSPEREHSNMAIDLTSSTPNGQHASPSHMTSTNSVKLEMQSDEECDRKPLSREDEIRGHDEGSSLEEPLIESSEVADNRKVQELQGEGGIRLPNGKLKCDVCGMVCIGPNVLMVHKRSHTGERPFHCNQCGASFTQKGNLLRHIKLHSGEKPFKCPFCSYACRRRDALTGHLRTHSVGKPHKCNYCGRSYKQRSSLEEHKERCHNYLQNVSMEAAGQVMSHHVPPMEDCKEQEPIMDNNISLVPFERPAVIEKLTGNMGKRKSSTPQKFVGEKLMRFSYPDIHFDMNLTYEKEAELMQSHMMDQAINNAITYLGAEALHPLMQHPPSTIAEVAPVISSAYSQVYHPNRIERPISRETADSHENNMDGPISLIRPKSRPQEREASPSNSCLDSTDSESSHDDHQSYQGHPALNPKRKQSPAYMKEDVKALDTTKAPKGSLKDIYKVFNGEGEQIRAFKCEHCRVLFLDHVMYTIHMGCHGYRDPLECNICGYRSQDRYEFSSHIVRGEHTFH
Sequence of IKZF2 (Q96SW2 whole entry): as the sequence (Q96SW2 whole entry, species assumed) above
Sequence of IKZF2 (Q16531 2-1140 partner): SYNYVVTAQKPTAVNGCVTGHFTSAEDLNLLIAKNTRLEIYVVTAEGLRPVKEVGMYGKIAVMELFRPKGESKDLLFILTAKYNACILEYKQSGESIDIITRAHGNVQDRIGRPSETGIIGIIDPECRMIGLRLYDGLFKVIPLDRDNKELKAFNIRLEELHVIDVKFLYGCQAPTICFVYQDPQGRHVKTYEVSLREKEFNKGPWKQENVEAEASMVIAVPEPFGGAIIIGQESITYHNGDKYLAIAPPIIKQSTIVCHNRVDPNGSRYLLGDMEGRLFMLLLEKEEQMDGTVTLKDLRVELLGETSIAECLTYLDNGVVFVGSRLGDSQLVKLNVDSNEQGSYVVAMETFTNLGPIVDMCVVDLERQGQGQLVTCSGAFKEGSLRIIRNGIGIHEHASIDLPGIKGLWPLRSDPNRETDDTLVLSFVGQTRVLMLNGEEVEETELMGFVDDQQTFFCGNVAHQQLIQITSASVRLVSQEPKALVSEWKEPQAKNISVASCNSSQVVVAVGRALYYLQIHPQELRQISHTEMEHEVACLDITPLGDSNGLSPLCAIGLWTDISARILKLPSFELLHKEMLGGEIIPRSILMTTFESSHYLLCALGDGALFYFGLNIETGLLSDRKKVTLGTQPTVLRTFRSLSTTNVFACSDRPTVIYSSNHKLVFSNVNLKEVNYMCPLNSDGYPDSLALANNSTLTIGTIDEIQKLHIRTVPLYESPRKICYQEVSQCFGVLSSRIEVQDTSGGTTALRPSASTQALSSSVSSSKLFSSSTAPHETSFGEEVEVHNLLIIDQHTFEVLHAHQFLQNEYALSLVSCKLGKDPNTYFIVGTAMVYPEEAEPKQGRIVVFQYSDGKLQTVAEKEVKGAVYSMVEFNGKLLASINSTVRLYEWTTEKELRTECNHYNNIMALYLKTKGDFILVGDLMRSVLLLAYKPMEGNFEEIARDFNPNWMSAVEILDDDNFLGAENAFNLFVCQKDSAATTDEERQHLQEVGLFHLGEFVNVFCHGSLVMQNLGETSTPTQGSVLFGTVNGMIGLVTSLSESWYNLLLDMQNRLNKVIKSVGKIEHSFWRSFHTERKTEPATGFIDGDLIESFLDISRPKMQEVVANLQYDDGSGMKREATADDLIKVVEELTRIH
Sequence of IKZF1 (Q13422 whole entry): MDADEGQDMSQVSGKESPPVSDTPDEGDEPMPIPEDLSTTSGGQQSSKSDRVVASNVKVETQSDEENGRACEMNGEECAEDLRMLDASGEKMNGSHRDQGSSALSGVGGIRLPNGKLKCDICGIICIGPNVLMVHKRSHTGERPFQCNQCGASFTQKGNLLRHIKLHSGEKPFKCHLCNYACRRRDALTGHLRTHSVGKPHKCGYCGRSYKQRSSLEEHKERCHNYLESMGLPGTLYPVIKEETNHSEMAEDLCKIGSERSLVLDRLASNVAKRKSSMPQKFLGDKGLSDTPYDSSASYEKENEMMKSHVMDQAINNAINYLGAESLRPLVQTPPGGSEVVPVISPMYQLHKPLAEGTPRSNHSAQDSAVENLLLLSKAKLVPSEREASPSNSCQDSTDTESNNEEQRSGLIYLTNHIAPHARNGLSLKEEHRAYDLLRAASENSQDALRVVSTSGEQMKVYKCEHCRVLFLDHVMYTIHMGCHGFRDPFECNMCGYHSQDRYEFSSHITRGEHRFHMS
Sequence of IKZF1 (Q96SW2 whole entry): as the sequence (Q96SW2 whole entry, species assumed) above
Sequence of IKZF1 (Q16531 2-1140 partner): as the sequence (Q16531 2-1140 partner) above

For the molecule `Nc1n[nH]c2c(CN3CCC(F)C3)cc(-c3ccc4c(c3)CN(C3CCC(=O)NC3=O)C4=O)nc12` (stereo not drawn) [Example 201, 3-(5-(3-amino-7-((3-fluoropyrrolidin-1-yl)methyl)-1H-pyrazolo[4,3-b]pyridin-5-yl)-1-oxoisoindolin-2-yl) piperidine-2,6-dione], on CRBN/DDB1, the IC50 lay in the range of 500 to 1000 nM. For the same molecule, on IKZF2, the DC50 fell in the range of 10 to 100 nM and the Dmax was 60 to 80%. Also, on IKZF1, the DC50 was 1000 to 10000 nM and the Dmax lay within 20 to 40%.
The molecule `Cn1ccnc1N1CCN(Cc2cc(-c3ccc4c(c3)CN(C3CCC(=O)NC3=O)C4=O)nc3c2ccn3C)CC1` (stereo not drawn) [Example 99, 3-(5-(1-methyl-4-((4-(1-methyl-1H-imidazol-2-yl)piperazin-1-yl)methyl)-1H-pyrrolo[2,3-b]pyridin-6-yl)-1-oxoisoindolin-2-yl) piperidine-2,6-dione] displayed an IC50 on CRBN/DDB1 of 100 to 500 nM. Further, at IKZF2, the DC50 lay in the range of 10 to 100 nM and the Dmax was in the range of 40 to 60%. In addition, at IKZF1, the DC50 was more than 10000 nM and the Dmax is less than 20%.
The molecule `Cn1ccc2c(CN3CCCCC3)cc(-c3ccc4c(c3)CN(C3CCC(=O)NC3=O)C4=O)nc21` (stereo not drawn) [Example 57, 3-(5-(1-methyl-4-(piperidin-1-ylmethyl)-1H-pyrrolo[2,3-b]pyridin-6-yl)-1-oxoisoindolin-2-yl) piperidine-2,6-dione] displayed an IC50 on CRBN/DDB1 of 100 to 500 nM. Also, on IKZF2, the DC50 was less than 1 nM and the Dmax is more than 80%. Further, at IKZF1, the DC50 is more than 10000 nM and the Dmax lay in the range of 20 to 40%.
Take `Nc1n[nH]c2c(CN3CC(F)C3)cc(-c3ccc4c(c3)CN(C3CCC(=O)NC3=O)C4=O)nc12` (stereo not drawn) [Example 207, 3-(5-(3-amino-7-((3-fluoroazetidin-1-yl)methyl)-1H-pyrazolo[4,3-b]pyridin-5-yl)-1-oxoisoindolin-2-yl) piperidine-2,6-dione]: the 50% inhibitory concentration (IC50) on CRBN/DDB1 fell in the range of 100 to 500 nM. Moreover, at IKZF2, the DC50 lay within 10 to 100 nM and the Dmax was 60 to 80%. Also, at IKZF1, the DC50 is more than 10000 nM and the Dmax was less than 20%.
On the same counts, the results for `Cn1ccc2c(CN3CCCC3CO)cc(-c3ccc4c(c3)CN(C3CCC(=O)NC3=O)C4=O)nc21` (stereo not drawn) [Example 101, 3-(5-(4-((2-(hydroxymethyl)pyrrolidin-1-yl)methyl)-1-methyl-1H-pyrrolo[2,3-b]pyridin-6-yl)-1-oxoisoindolin-2-yl) piperidine-2,6-dione] are 100 to 500 nM, 1 to 10 nM, more than 80%, more than 10000 nM and less than 20%.
With `CC(C)n1ccc2nc(-c3ccc4c(c3)CN(C3CCC(=O)NC3=O)C4=O)cc(CN3CCCC3)c21` (stereo not drawn) [Example 172, 3-(5-(1-isopropyl-7-(pyrrolidin-1-ylmethyl)-1H-pyrrolo[3,2-b]pyridin-5-yl)-1-oxoisoindolin-2-yl) piperidine-2,6-dione], at CRBN/DDB1, the IC50 lay within 1000 to 5000 nM. Also, on IKZF2, the DC50 lay in the range of 10 to 100 nM and the Dmax is 60 to 80%. At IKZF1, the DC50 was 100 to 1000 nM and the Dmax fell in the range of 20 to 40%.
At CRBN/DDB1, `O=C1CCC(N2Cc3cc(-c4cc(CN5CCCC5)c5ccn(Cc6ccccc6)c5n4)ccc3C2=O)C(=O)N1` (stereo not drawn) [Example 147, 3-(5-(1-benzyl-4-(pyrrolidin-1-ylmethyl)-1H-pyrrolo[2,3-b]pyridin-6-yl)-1-oxoisoindolin-2-yl) piperidine-2,6-dione] registered an IC50 of 100 to 500 nM. For the same molecule, on IKZF2, the DC50 was 1 to 10 nM and the Dmax was in the range of 40 to 60%. On IKZF1, the DC50 is more than 10000 nM and the Dmax is less than 20%.
In the case of `O=C1CCC(N2Cc3cc(-c4cc(CN5CCCC5)c5ccn(C6CNC6)c5n4)ccc3C2=O)C(=O)N1` (stereo not drawn) [Example 168, 3-(5-(1-(azetidin-3-yl)-4-(pyrrolidin-1-ylmethyl)-1H-pyrrolo[2,3-b]pyridin-6-yl)-1-oxoisoindolin-2-yl) piperidine-2,6-dione], the 50% inhibitory concentration (IC50) on CRBN/DDB1 was 500 to 1000 nM. Further, the results for the DC50 on IKZF2 and on IKZF1 were 100 to 1000 nM and 1000 to 10000 nM, respectively. Also, the Dmax at IKZF2 was in the range of 60 to 80%; at IKZF1, 20 to 40%.
With `COc1n[nH]c2c(CN3CCCC3)cc(-c3ccc4c(c3)CN(C3CCC(=O)NC3=O)C4=O)nc12` (stereo not drawn) [Example 235, 3-(5-(3-methoxy-7-(pyrrolidin-1-ylmethyl)-1H-pyrazolo[4,3-b]pyridin-5-yl)-1-oxoisoindolin-2-yl) piperidine-2,6-dione], the IC50 on CRBN/DDB1 was in the range of 5000 to 10000 nM. In addition, the DC50 at IKZF2 was in the range of 1 to 10 nM; at IKZF1, 100 to 1000 nM. Further, the Dmax lay within 60 to 80% on IKZF2 and 20 to 40% on IKZF1.
In turn, `COCCn1ccc2c(CN3CCCC3)cc(-c3ccc4c(c3)CN(C3CCC(=O)NC3=O)C4=O)nc21` (stereo not drawn) [Example 118, 3-(5-(1-(2-methoxyethyl)-4-(pyrrolidin-1-ylmethyl)-1H-pyrrolo[2,3-b]pyridin-6-yl)-1-oxoisoindolin-2-yl) piperidine-2,6-dione] returned an IC50 at CRBN/DDB1 of 500 to 1000 nM. For the same molecule, at IKZF2, the DC50 is 1 to 10 nM and the Dmax was 40 to 60%. On IKZF1, the DC50 is more than 10000 nM and the Dmax was less than 20%.
On to `CN(C)C(=O)C1CCN(Cc2cc(-c3ccc4c(c3)CN(C3CCC(=O)NC3=O)C4=O)nc3c2ccn3C)CC1` (stereo not drawn) [Example 92, 1-((6-(2-(2,6-dioxopiperidin-3-yl)-1-oxoisoindolin-5-yl)-1-methyl-1H-pyrrolo[2,3-b]pyridin-4-yl)methyl)-N,N-dimethylpiperidine-4-carboxamide], for which the IC50 on CRBN/DDB1 is less than 100 nM. For the same molecule, the DC50 at IKZF2 is 1 to 10 nM; on IKZF1, more than 10000 nM. Besides, the Dmax at IKZF2 was more than 80%; on IKZF1, less than 20%.
As to `Cn1ccc2c(CN3CCC4(CC3)CC4)cc(-c3ccc4c(c3)CN(C3CCC(=O)NC3=O)C4=O)nc21` (stereo not drawn) [Example 64, 3-(5-(4-((6-azaspiro[2.5]octan-6-yl)methyl)-1-methyl-1H-pyrrolo[2,3-b]pyridin-6-yl)-1-oxoisoindolin-2-yl) piperidine-2,6-dione], the IC50 at CRBN/DDB1 was in the range of 100 to 500 nM. Further, the figures for the DC50 on IKZF2 and on IKZF1 were less than 1 nM and more than 10000 nM, respectively. For the same molecule, the values for the Dmax at IKZF2 and at IKZF1 were more than 80% and 20 to 40%, respectively.
The molecule `Cn1ccc2c(C(=O)N3CCCC3)cc(-c3ccc4c(c3)CN(C3CCC(=O)NC3=O)C4=O)nc21` (stereo not drawn) [Example 89, 3-(5-(1-methyl-4-(pyrrolidine-1-carbonyl)-1H-pyrrolo[2,3-b]pyridin-6-yl)-1-oxoisoindolin-2-yl) piperidine-2,6-dione] had an IC50 on CRBN/DDB1 of 500 to 1000 nM. Also, the DC50 on IKZF2 was 100 to 1000 nM; on IKZF1, more than 10000 nM. For the same molecule, the Dmax is 20 to 40% on IKZF2 and less than 20% at IKZF1.
On the same counts, the results for `Nc1nn(C2COC2)c2c(CN3CCCC3)cc(-c3ccc4c(c3)CN(C3CCC(=O)NC3=O)C4=O)nc12` (stereo not drawn) [Example 234, 3-(5-(3-amino-1-(oxetan-3-yl)-7-(pyrrolidin-1-ylmethyl)-1H-pyrazolo[4,3-b]pyridin-5-yl)-1-oxoisoindolin-2-yl) piperidine-2,6-dione] are 1000 to 5000 nM, 10 to 100 nM, 1000 to 10000 nM, 60 to 80% and 20 to 40%.
As for `COC1CN(Cc2cc(-c3ccc4c(c3)CN(C3CCC(=O)NC3=O)C4=O)nc3c2ccn3C)C1` (stereo not drawn) [Example 85, 3-(5-(4-((3-methoxyazetidin-1-yl)methyl)-1-methyl-1H-pyrrolo[2,3-b]pyridin-6-yl)-1-oxoisoindolin-2-yl) piperidine-2,6-dione], the 50% inhibitory concentration (IC50) at CRBN/DDB1 lay within 100 to 500 nM. Moreover, the DC50 on IKZF2 and on IKZF1 was 1 to 10 nM in each case. Further, the Dmax is more than 80% on IKZF2 and 20 to 40% on IKZF1.
On to `CN(C)C1CCN(Cc2cc(-c3ccc4c(c3)CN(C3CCC(=O)NC3=O)C4=O)nc3c2ccn3C2COC2)CC1` (stereo not drawn) [Example 190, 3-(5-(4-((4-(dimethylamino)piperidin-1-yl)methyl)-1-(oxetan-3-yl)-1H-pyrrolo[2,3-b]pyridin-6-yl)-1-oxoisoindolin-2-yl) piperidine-2,6-dione], for which the 50% inhibitory concentration (IC50) at CRBN/DDB1 was 100 to 500 nM. Also, the figures for the DC50 at IKZF2 and on IKZF1 were 10 to 100 nM and more than 10000 nM, respectively. Further, the Dmax is 40 to 60% at IKZF2 and less than 20% on IKZF1.
`Cn1ccc2c(CN3CCn4nccc4C3)cc(-c3ccc4c(c3)CN(C3CCC(=O)NC3=O)C4=O)nc21` (stereo not drawn) [Example 107, 3-(5-(4-((6,7-dihydropyrazolo[1,5-a]pyrazin-5 (4H)-yl)methyl)-1-methyl-1H-pyrrolo[2,3-b]pyridin-6-yl)-1-oxoisoindolin-2-yl) piperidine-2,6-dione]: the concentration for half-maximal inhibition (IC50) on CRBN/DDB1 fell in the range of 100 to 500 nM. The DC50 on IKZF2 is 10 to 100 nM; on IKZF1, more than 10000 nM. For the same molecule, the Dmax at IKZF2 was 40 to 60%; at IKZF1, less than 20%.
`CC(C)C1CCN(Cc2cc(-c3ccc4c(c3)CN(C3CCC(=O)NC3=O)C4=O)nc3[nH]ccc23)C1` (stereo not drawn) [Example 146] showed a concentration for half-maximal inhibition (IC50) at CRBN/DDB1 of 100 to 500 nM. In addition, at IKZF2, the DC50 fell in the range of 1 to 10 nM and the Dmax is more than 80%. In addition, on IKZF1, the DC50 was in the range of 1 to 10 nM and the Dmax lay in the range of 40 to 60%.

The record behind these values is US20250214991A1 (Oncopia Therapeutics, Inc. d/b/a/ SK Life Science Labs, priority 2022, published 2025).
